According to patent EP3436445B1, “HISTONE DEMETHYLASE INHIBITORS” (Celgene Quanticel Research, Inc., priority 2016, dated 2017):

Assays:
[1] = system: KDM2B-bound genes of the established Mia Paca-2 cancer cell line; assay: Mia Paca-2 pancreatic cell line expression assay for KDM2B-related genes (real-time PCR); format: cell-based; settings: Homo sapiens; Table 4; Mia Paca-2 cells; read-out: Cellular IC50
From the text: Gene expression assay to assess the ability of KDM2B small molecule inhibitors to activate the expression of KDM2B-bound genes of the established Mia Paca-2 cancer cell line.
This gene expression assay is a real-time PCR assay which quantifies the amount of messenger RNA from genes that are normally repressed by KDM2B interacting with EZH2 compared with a control GAPDH gene whose expression is not regulated by KDM2B. The amount of gene expression is correlated to the amount of small molecule inhibition of KDM2B's enzymatic activity.
The established cancer cell line Mia Paca-2 was purchased from American Type Culture Collection (ATCC) and routinely passaged according to ATCC published protocols. Cells were seeded at a density of 40,000 per 96-well. 24 hours after plating, cells received final concentrations of 20nM, 40nM, 80nM and 320nM of test compound. […] At the end of each of the compound incubation period, media was removed and cells were trypsinized according to the ATCC published protocol. mRNA was then harvested from the cell samples using a RNeasy kit (Qiagen). mRNA was quantified and qualified using a Nanodrop machine (Thermo Scientific). mRNA was converted to cDNA using the High-Capacity cDNA Reverse Transcription Kit (Applied Biosystems). […] Data was analyzed using the delta-delta Ct method to calculate fold enrichment over DMSO sample gene expression.

FBXL10 = molecular target: T1, FBXL10 (Homo sapiens, UniProt Q8NHM5); assay: FBXL10 in vitro enzyme inhibition assay (AlphaScreen); format: biochemical; settings: Table 3; 0.3 nM FBXL10, H3K36me2-biotin labeled peptide
T1 construct: purchased BPS Bioscience 50120
T1 sequence (Q8NHM5 1-650): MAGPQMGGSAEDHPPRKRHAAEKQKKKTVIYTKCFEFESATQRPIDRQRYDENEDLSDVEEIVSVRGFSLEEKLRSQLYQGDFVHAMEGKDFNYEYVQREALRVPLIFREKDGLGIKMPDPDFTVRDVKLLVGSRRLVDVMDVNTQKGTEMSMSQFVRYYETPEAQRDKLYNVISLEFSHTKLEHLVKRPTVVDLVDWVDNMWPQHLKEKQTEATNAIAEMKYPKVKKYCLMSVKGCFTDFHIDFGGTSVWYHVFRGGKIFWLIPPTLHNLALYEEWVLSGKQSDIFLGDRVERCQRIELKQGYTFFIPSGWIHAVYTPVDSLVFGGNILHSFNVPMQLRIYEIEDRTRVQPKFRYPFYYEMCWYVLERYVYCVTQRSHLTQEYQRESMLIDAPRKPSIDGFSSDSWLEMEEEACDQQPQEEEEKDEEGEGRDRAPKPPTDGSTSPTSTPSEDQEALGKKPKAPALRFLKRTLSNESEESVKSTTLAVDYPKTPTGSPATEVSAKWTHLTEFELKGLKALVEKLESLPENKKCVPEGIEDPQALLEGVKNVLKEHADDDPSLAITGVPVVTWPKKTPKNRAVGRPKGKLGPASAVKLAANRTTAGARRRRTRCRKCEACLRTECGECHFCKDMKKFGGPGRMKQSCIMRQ
From the text: (§1) This assay determines the ability of a test compound to inhibit FBXL11, FBXL10, and PHF8 demethylase activity. Baculovirus expressed FBXL11 (GenBank Accession #NM_012308, AA1-1162) was purchased from BPS Bioscience (Cat#50102). Baculovirus expressed FBXL10 (GenBank Accession #NM_032590, AA 1-650) was purchased from BPS Bioscience (Cat #50120). Baculovirus expressed PHF8 (GenBank Accession NP_055922.1) was purchased from Active Motif (Cat#31435).
The ability of test compounds to inhibit the activity of FBXL10 was determined in 384-well plate format under the following reaction conditions: 0.3 nM FBXL10, 30 nM H3K36me2-biotin labeled peptide (Anaspec cat # 64442), 0.2 µM alpha-ketoglutaric acid in assay buffer of 50 mM HEPES, pH7.3, 0.005% Brij35, 0.5 mM TCEP, 0.2 mg/ml BSA, 50 µM sodium L-ascorbate, 5 µM ammonium iron(II) sulfate. Reaction product is determined quantitatively by AlphaScreen detection after the addition of detection reagents anti-H3K36me1 antibody, AlphaScreen® Streptavidin-coated Donor beads, and AlphaScreen® Protein A Acceptor beads in 50 mM HEPES, pH7.3, 10 mM NaCl, 0.005% Brij35, 5 mM EDTA, 2 mg/ml BSA to final 10 µg/ml beads.
The assay reaction was initiated by the following: 3 µl of the mixture of 90 nM H3K36me2-biotin labeled peptide and 0.6 µM alpha-ketoglutaric acid with 3 µl of 11-point serial diluted inhibitor in 3% DMSO are added to each well of 384 well Proxiplate (Perkin Elmer), followed by the addition of 3 µl of 0.9 nM FBXL10 to initiate the reaction. The reaction mixture is incubated at room temperature for 1 hour, and terminated by the addition of 3 µl of appropriate dilution of anti H3K36me1 antibody in 50 mM HEPES, pH7.3, 10 mM NaCl, 0.005% Brij35, 5 mM EDTA, 2 mg/ml BSA. Plates will then incubated at room temperature for 40 minutes, followed by addition of 3 µl of 50 µg/ml AlphaScreen® Streptavidin-coated Donor beads and AlphaScreen® Protein A Acceptor beads in 50 mM HEPES, pH7.3, 10 mM NaCl, 0.005% Brij35, 5 mM EDTA, 2 mg/ml BSA. Plates will then be read by EnVision Multilabel Reader in AlphaScreen mode after minimum 2 hour incubation at room temperature. The AlphaScreen signal for each well is used to determine inhibition constant (IC50).

PHF8 = molecular target: T2, PHF8 (Homo sapiens, UniProt Q9UPP1); assay: PHF8 in vitro enzyme inhibition assay (TR-FRET); format: biochemical; settings: Table 3; 3 nM PHF8, H3K9me1-biotin labeled peptide
T2 construct: purchased Active Motif 31435
T2 sequence (Q9UPP1 37-1060): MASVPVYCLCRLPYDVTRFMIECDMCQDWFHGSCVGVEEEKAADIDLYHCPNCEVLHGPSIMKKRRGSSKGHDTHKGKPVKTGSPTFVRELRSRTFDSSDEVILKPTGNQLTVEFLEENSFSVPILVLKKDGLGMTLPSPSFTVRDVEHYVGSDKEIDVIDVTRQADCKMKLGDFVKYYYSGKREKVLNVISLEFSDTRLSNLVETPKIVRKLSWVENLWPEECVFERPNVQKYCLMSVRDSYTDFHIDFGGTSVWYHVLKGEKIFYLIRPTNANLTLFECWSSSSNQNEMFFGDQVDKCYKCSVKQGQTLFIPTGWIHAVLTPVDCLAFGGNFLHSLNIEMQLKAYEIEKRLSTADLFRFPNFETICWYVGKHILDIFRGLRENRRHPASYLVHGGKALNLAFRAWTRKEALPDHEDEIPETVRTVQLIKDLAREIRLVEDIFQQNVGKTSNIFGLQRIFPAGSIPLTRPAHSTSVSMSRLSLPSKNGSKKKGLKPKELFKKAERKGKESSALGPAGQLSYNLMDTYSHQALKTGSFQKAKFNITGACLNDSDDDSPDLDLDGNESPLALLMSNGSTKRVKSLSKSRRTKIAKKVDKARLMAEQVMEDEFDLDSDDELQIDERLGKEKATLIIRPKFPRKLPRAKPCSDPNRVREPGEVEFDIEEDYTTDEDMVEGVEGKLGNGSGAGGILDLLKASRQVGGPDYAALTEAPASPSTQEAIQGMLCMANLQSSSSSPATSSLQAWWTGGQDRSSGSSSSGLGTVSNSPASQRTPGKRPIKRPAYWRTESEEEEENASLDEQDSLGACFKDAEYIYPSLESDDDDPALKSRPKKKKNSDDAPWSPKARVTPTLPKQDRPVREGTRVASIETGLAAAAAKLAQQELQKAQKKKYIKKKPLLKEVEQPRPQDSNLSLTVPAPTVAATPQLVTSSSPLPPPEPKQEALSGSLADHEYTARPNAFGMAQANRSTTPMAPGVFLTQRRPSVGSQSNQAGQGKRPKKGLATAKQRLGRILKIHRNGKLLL
From the text: as §1
The ability of test compounds to inhibit the activity of PHF8 was determined in 384-well plate format under the following reaction conditions: 3 nM PHF8, 200 nM H3K9me1-biotin labeled peptide (Anaspec cat #64358), 0.5 µM alpha-ketoglutaric acid in assay buffer of 50 mM HEPES, pH7.3, 0.005% Brij35, 0.5 mM TCEP, 0.2 mg/ml BSA, 50 µM sodium L-ascorbate, and 5 µM ammonium iron(II) sulfate. Reaction product was determined quantitatively by TR-FRET after the addition of detection reagent Phycolink Streptavidin-allophycocyanin (Prozyme) and Europium-anti-unmodified-histone H3 lysine 9/lysine27 (H3K9/K27) antibody (PerkinElmer) in the presence of 5 mM EDTA in LANCE detection buffer (PerkinElmer) at a final concentration of 25 nM and 0.5 nM, respectively.
The assay reaction was initiated by the following: 2 µl of the mixture of 600 nM H3K9me1-biotin labeled peptide and 1.5 µM alpha-ketoglutaric acid with 2 µl of 11-point serial diluted inhibitor in 3% DMSO were added to each well of the plate, followed by the addition of 2 µl of 9 nM PHF8 to initiate the reaction. The reaction mixture was incubated at room temperature for 15 minutes, and terminated by the addition of 6 µl of 5 mM EDTA in LANCE detection buffer containing 50 nM Phycolink Streptavidin-allophycocyanin and 1 nM Europium-anti-unmodified H3K9/K27 antibody. Plates were read by EnVision Multilabel Reader in TR-FRET mode (excitation at 320 nm, emission at 615 nm and 665 nm) after 1 hour incubation at room temperature. A ratio was calculated (665/615) for each well and fitted to determine inhibition constant (IC50).

IC50 [1] [nM]	IC50 (FBXL10) [nM]	IC50 (PHF8) [nM]	SMILES
1000 to 10000	–	–	Cn1cnc(-c2cc(-c3nn[nH]c3F)ccn2)c1-c1ccc(F)cc1OCC1CC1 [Example 41, 2-[5-[2-(cyclopropylmethoxy)-4-fluorophenyl]-1-methylimidazol-4-yl]-4-(5-fluoro-1H-triazol-4-yl)pyridine]
–	100 to 1000	–	c1ccc(-c2ccccc2CCn2cnc(-c3cc(-c4c[nH]nn4)ccn3)c2)cc1 [Example 27, 2-[1-[2-(2-phenylphenyl)ethyl]imidazol-4-yl]-4-(1H-triazol-4-yl)pyridine]
–	100 to 1000	1000 to 10000	Clc1cc(Cl)cc(-n2cnc(-c3cc4[nH]nnc4cn3)c2)c1 [Example 52, 1-(3,5-dichlorophenyl)-4-{1H-[1,2,3]triazolo[4,5-c]pyridin-6-yl}-1H-imidazole]
–	100 to 1000	1000 to 10000	Cn1cnc(-c2cc3[nH]nnc3cn2)c1-c1ccc(F)cc1 [Example 53, 5-(4-fluorophenyl)-1-methyl-4-{1H-[1,2,3]triazolo[4,5-c]pyridin-6-yl}-1H-imidazole]
–	100 to 1000	–	Fc1c(Cn2cnc(-c3cc(-c4c[nH]nn4)ccn3)c2)cccc1OC(F)(F)F [Example 26, 2-[1-[[2-fluoro-3-(trifluoromethoxy)phenyl]methyl]imidazol-4-yl]-4-(1H-triazol-4-yl)pyridine]
–	≤ 100	100 to 1000	Clc1ccccc1Cn1cnc(-c2cc(-c3cn[nH]n3)ccn2)c1Br [Example 55, 2-(5-bromo-1-(2-chlorobenzyl)-1H-imidazol-4-yl)-4-(2H-1,2,3-triazol-4-yl)pyridine]
–	≤ 100	1000 to 10000	c1nc(-c2cn(CC3CC3)cn2)cc2[nH]nnc12 [Example 42, 1-(cyclopropylmethyl)-4-{1H-[1,2,3]triazolo[4,5-c]pyridin-6-yl}-1H-imidazole]
100 to 1000	–	–	FC(F)(F)c1[nH]nnc1-c1ccnc(-c2cn(CCc3cccc4ccccc34)cn2)c1 [Example 37, 2-[1-(2-naphthalen-1-ylethyl)imidazol-4-yl]-4-[5-(trifluoromethyl)-1H-triazol-4-yl]pyridine]
–	100 to 1000	–	CC(Cc1ccccc1)n1cnc(-c2cc(-c3c[nH]nn3)ccn2)c1 (stereo not drawn) [Example 33, 2-[1-(1-phenylpropan-2-yl)imidazol-4-yl]-4-(1H-triazol-4-yl)pyridine]
–	≤ 100	100 to 1000	FC(F)(F)Oc1ccccc1CCn1cnc(-c2cc(-c3c[nH]nn3)ccn2)c1 [Example 34]
